Results: patent publication US8686048B2, “Immunomodulator and anti-inflammatory compounds” (Rhizen Pharmaceuticals SA, priority 2010, dated 2014)

What was measured:
h-DHODH = molecular target: T1, h-DHODH (Homo sapiens, UniProt Q02127); assay: Dihydro-orotate dehydrogenase inhibition assay (U937 membrane preparations, DCIP reduction); format: biochemical; settings: U937 membrane preparation
T1 construct: endogenous in cells; host or cells: U937 cells (membrane fraction, solubilised with 1% octyl glucoside)
T1 sequence (Q02127 whole entry): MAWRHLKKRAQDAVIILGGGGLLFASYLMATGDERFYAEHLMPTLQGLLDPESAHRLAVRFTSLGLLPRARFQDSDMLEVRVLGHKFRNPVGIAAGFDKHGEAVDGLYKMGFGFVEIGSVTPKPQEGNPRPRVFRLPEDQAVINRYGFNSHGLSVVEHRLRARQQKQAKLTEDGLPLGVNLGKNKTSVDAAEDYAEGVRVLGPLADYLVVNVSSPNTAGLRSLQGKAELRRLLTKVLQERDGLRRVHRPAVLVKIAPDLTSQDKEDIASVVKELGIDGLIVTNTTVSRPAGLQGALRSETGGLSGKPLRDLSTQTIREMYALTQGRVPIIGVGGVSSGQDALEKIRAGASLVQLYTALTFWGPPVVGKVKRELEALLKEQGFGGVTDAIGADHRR
Procedure: Dihydro-Orotate Dehydrogenase Inhibition Assay
Dihydro-orotate dehydrogenase (DHODH) catalyzes the […] of dihydro-orotate to orotate during de novo biosynthesis of pyrimidines Inhibition of DHODH activity in U937 membrane preparations was measured by the dihydro-orotate driven reduction of 2,6 dichloroindophenol (DCIP).
U937 cells were homogenized in 20 mM Tris/HCl (pH 7.2) containing 1 mM EDTA. […] Following washes, the pellet was dissolved in 20 mM Tris/HCl containing 150 mM NaCl, 1 mM EDTA, and 1% octyl glucoside on ice for 1 h. Particulate matter was removed by centrifugation at 100000×g for 1 h at 4° C. […] The mixture was incubated at 37° C. for 4 h before measuring the change in absorbance on a plate reader (BMG Labtech., Germany) at 600 nm. Data were analyzed using GraphPad Prism. IC50 for each compound was determined based on the percent inhibition of dihydro-orotate […].

IL-17 = assay: Inhibition of IL-17 release from mouse splenocytes (PMA + ionomycin, ELISA); format: cell-based, Balb/c mice; settings: Splenocyte, 10 μM, 3 h
Procedure: 2. Inhibition of IL-17 Release from Mouse Splenocytes:
Splenocytes isolated from Balb/c mice were re-suspended in RPMI medium at a concentration of 1×10^6 cells/ml and seeded in a 6 well plate. Cells were incubated with desired concentrations of the inhibitor for 15 min prior to induction with 10 ng/ml PMA+1 μM ionomycin. After a 3 h incubation, supernatant was collected and analyzed for IL-17 concentration using an ELISA kit. Data were analyzed using GraphPad Prism. IC50 values for each compound were determined based on the percent inhibition due to the test compound compared to the control.

| SMILES | melting point | inhibition at 1 µM (h-DHODH) | IC50 (h-DHODH) | h-DHODH % inhibition 1 uM (h-DHODH) | inhibition at 0.3 µM (h-DHODH; compound tested at 0.3 uM (footnote *)) | inhibition at 10 µM (h-DHODH; compound tested at 10 uM) | inhibition at 10 µM (IL-17) |
| --- | --- | --- | --- | --- | --- | --- | --- |
| COc1cccc(-c2cc(F)c(NC(=O)c3ccccc3S(=O)(=O)O)c(F)c2)c1 [Example 2, 2-(3,5-Difluoro-3′-methoxybiphenyl-4-ylcarbamoyl)benzenesulfonic acid] | 97 to 102 °C | 12.2% | – | – | – | – | 29.2% |
| COc1cccc(-c2cc(F)c(NC(=O)c3nccnc3C(=O)O)c(F)c2)c1 [Example 6, 3-(3,5-Difluoro-3′-methoxybiphenyl-4-ylcarbamoyl)pyrazine-2-carboxylic acid] | 180.1 to 183.4 °C | 2.26% | – | – | – | – | 9.52% |
| CCOc1cccc(-c2cc(F)c(NC(=O)c3nccnc3C(=O)O)c(F)c2)c1 [Example 7, 3-(3,5-Difluoro-3′-ethoxybiphenyl-4-ylcarbamoyl)pyrazine-2-carboxylic acid] | 133.4 to 137.3 °C | 4.53% | – | – | – | – | 8.58% |
| O=C(O)c1ccccc1C(=O)Nc1c(F)cc(-c2ccccc2Cl)cc1F [Example 8, 2-(2′-Chloro-3,5-difluorobiphenyl-4-ylcarbamoyl)benzoic acid] | 143.5 to 145.1 °C | 85.8% | 90 nM | – | – | – | 35.4% |
| O=C(O)c1nccnc1C(=O)Nc1c(F)cc(-c2cccc(OCc3ccccc3)c2)cc1F [Example 9, 3-[3′-(Benzyloxy)-3,5-difluorobiphenyl-4-ylcarbamoyl]pyrazine-2-carboxylic acid] | 142 to 144.5 °C | 10.3% | – | – | – | – | 26.9% |
| CCOc1cccc(-c2cc(F)c(NC(=O)c3nccnc3C(=O)O)c(Cl)c2)c1 [Example 11, 3-(3-Chloro-3′-ethoxy-5-fluorobiphenyl-4-ylcarbamoyl)pyrazine-2-carboxylic acid] | 148 to 153 °C | – | – | – | – | – | 2.62% |
| CCOc1cccc(-c2cc(F)c(NC(=O)c3cc(Cl)c(Cl)cc3C(=O)O)c(Cl)c2)c1 [Example 14, 4,5-Dichloro-2-(3-chloro-3′-ethoxy-5-fluorobiphenyl-4-ylcarbamoyl)benzoic acid] | 260 to 265 °C | 52.2% | – | – | – | – | 13.5% |
| COc1cccc(-c2cc(F)c(NC(=O)c3cc(Cl)c(Cl)cc3C(=O)O)c(F)c2)c1 [Example 16, 4,5-Dichloro-2-(3,5-difluoro-3′-methoxybiphenyl-4-ylcarbamoyl)benzoic acid] | 158.6 to 162.2 °C | 28% | – | – | – | – | 12.3% |
| CCOc1cccc(-c2cc(F)c(NC(=O)c3cc(Cl)c(Cl)cc3C(=O)O)c(F)c2)c1 [Example 17, 4,5-Dichloro-2-(3′-ethoxy-3,5-difluorobiphenyl-4-ylcarbamoyl)benzoic acid] | 190.1 to 192.4 °C | 50.3% | – | – | – | – | 11.1% |
| O=C(O)c1ccccc1C(=O)Nc1c(Cl)cc(-c2ccccc2Cl)cc1Cl [Example 33, 2-(2′,3,5-Trichlorobiphenyl-4-ylcarbamoyl)benzoic acid] | 182 to 185 °C | – | – | – | – | – | 14% |
| O=C(O)c1ccccc1C(=O)Nc1ccc(-c2ccccc2)cc1 [Example 85, 2-(biphenyl-4-ylcarbamoyl)benzoic acid] | – | – | – | – | 15.1% | – | 13% |
| CCCCOc1cccc(-c2c(F)c(F)c(NC(=O)c3ccccc3C(=O)O)c(F)c2F)c1 [Example 91, 2-(3′-butoxy-2,3,5,6-tetrafluorobiphenyl-4-ylcarbamoyl)benzoic acid] | 215.5 to 218.5 °C | 42.4% | – | – | – | – | – |
| CCCCOc1cccc(-c2ccc(NC(=O)c3ccccc3C(=O)O)c(F)c2)c1 [Example 92, 2-(3′-butoxy-3-fluorobiphenyl-4-ylcarbamoyl)benzoic acid] | 102 to 105 °C | 9.65% | – | – | – | – | – |
| CCCCOc1cccc(-c2ccc(NC(=O)c3ccccc3C(=O)O)cc2)c1 [Example 96, 2-(3′-butoxybiphenyl-4-ylcarbamoyl)benzoic acid] | 155 to 157 °C | – | – | – | – | – | – |
| CCCCOc1cccc(-c2ccc(NC(=O)c3ccccc3C(=O)O)cc2F)c1 [Example 97, 2-(3′-butoxy-2-fluorobiphenyl-4-ylcarbamoyl)benzoic acid] | 164 to 167 °C | – | – | – | – | – | – |
| CCCCOc1cccc(-c2c(F)cc(NC(=O)c3ccccc3C(=O)O)cc2F)c1 [Example 98, 2-(3′-Butoxy-2,6-difluorobiphenyl-4-ylcarbamoyl)benzoic acid] | 181.1 to 184.2 °C | 31% | – | – | – | – | – |
| CCCc1c[nH]c2ccc(-c3cc(F)c(NC(=O)c4ccccc4C(=O)O)c(F)c3)cc12 [Example 99, 2-[2,6-Difluoro-4-(3-propyl-1H-indol-5-yl)phenylcarbamoyl]benzoic acid] | 76 to 80 °C | 42.6% | – | – | – | – | – |
| CCc1c[nH]c2ccc(-c3cc(F)c(NC(=O)c4ccccc4C(=O)O)c(Cl)c3)cc12 [Example 100, 2-[2-Chloro-4-(3-ethyl-1H-indol-5-yl)-6-fluorophenylcarbamoyl]benzoic acid] | 98 to 102 °C | 58.7% | – | – | – | – | – |
| C/C(O)=C(\C#N)C(=O)Nc1ccc(C(F)(F)F)cc1 [Teriflunomide, reference compound] | – | – | – | – | – | 77.2% | 0% |

Continued, in another order:

| melting point | inhibition at 1 µM (h-DHODH) | IC50 (h-DHODH) | h-DHODH % inhibition 1 uM (h-DHODH) | inhibition at 0.3 µM (h-DHODH; compound tested at 0.3 uM (footnote *)) | inhibition at 10 µM (h-DHODH; compound tested at 10 uM) | SMILES | inhibition at 10 µM (IL-17) |
| --- | --- | --- | --- | --- | --- | --- | --- |
| 168 to 173 °C | 53.3% | 741 nM | – | – | – | COc1cccc(-c2cc(F)c(NC(=O)c3ccccc3C(=O)O)c(F)c2)c1 [Example 1, 2-(3,5-Difluoro-3′-methoxybiphenyl-4-ylcarbamoyl)benzoic acid] | 6.13% |
| 194 to 199 °C | 14.3% | – | – | – | – | COc1cccc(-c2ccc(NC(=O)c3ccccc3C(=O)O)cn2)c1 [Example 3, 2-(6-(3-Methoxyphenyl)pyridin-3-ylcarbamoyl)benzoic acid] | 17.1% |
| 151 to 157 °C | 43% | – | – | – | – | CCOc1cccc(-c2ccc(NC(=O)c3ccccc3C(=O)O)c(F)c2)c1 [Example 4, 2-(3′-Ethoxy-3-fluorobiphenyl-4-ylcarbamoyl)benzoic acid] | 11.2% |
| 161.2 to 165.7 °C | 46.8% | – | – | – | – | O=C(O)c1ccccc1C(=O)Nc1c(F)cc(-c2ccccc2)cc1F [Example 10, 2-(3,5-Difluorobiphenyl-4-ylcarbamoyl)benzoic acid] | 6.82% |
| 148.2 to 151.4 °C | – | 205 nM | 64.47% | – | – | O=C(O)c1ccccc1C(=O)Nc1c(F)cc(-c2cccc(OC(F)(F)F)c2)cc1F [Example 12, 2-[3,5-Difluoro-3′-(trifluoromethoxy)biphenyl-4-ylcarbamoyl]benzoic acid] | 2.96% |
| 140.3 to 143.4 °C | 76.4% | 150 nM | – | – | – | O=C(O)c1ccccc1C(=O)Nc1c(F)cc(-c2cccc(OCc3ccccc3)c2)cc1F [Example 13, 2-[3′-(Benzyloxy)-3,5-difluorobiphenyl-4-ylcarbamoyl]benzoic acid] | 3.43% |
| 135 to 140 °C | 75.5% | 129 nM | – | – | – | CCOc1cccc(-c2cc(F)c(NC(=O)c3ccccc3C(=O)O)c(Cl)c2)c1 [Example 15, 2-(3-Chloro-3′-ethoxy-5-fluorobiphenyl-4-ylcarbamoyl)benzoic acid] | 57.5% |
| 163 to 168 °C | 62.2% | 294 nM | – | – | – | COc1cccc(-c2cc(Cl)c(NC(=O)c3ccccc3C(=O)O)c(Cl)c2)c1 [Example 18, 2-(3,5-Dichloro-3′-methoxybiphenyl-4-ylcarbamoyl)benzoic acid] | 12.1% |
| 185 to 187 °C | – | – | – | – | – | COc1ccc(Cl)c(-c2ccc(NC(=O)c3ccccc3C(=O)O)cc2F)c1 [Example 79, 2-(2′-chloro-2-fluoro-5′-methoxybiphenyl-4-ylcarbamoyl)benzoic acid] | 24.6% |
| 162 to 167 °C | – | – | – | – | – | CCSc1cccc(-c2c(F)cc(NC(=O)c3ccccc3C(=O)O)cc2F)c1 [Example 89, 2-[3′-(ethylthio)-2,6-difluorobiphenyl-4-ylcarbamoyl]benzoic acid] | 25.5% |
| 158 to 160 °C | – | – | 10.46% | – | – | O=C(O)c1ccccc1C(=O)Nc1c(F)cc(-c2cccc(OC(F)(F)F)c2)cc1F [Example 93, 2-[3,5-difluoro-3′-(trifluoromethoxy)biphenyl-4-ylcarbamoyl]benzoic acid] | – |
| 134.5 to 137.5 °C | 13.9% | – | – | – | – | O=C(O)c1ccccc1C(=O)Nc1ccc(-c2cccc(OC3CC3)c2)cc1F [Example 94, 2-(3′-cyclopropoxy-3-fluorobiphenyl-4-ylcarbamoyl)benzoic acid] | – |
| 150.2 to 154.3 °C | 1.49% | – | – | – | – | O=C(O)c1ccccc1C(=O)Nc1ccc(-c2cccc(OC3CC3)c2)cc1 [Example 95, 2-(3′-cyclopropoxybiphenyl-4-ylcarbamoyl)benzoic acid] | – |
